The subject of assay [1] is GRP78. The assay can be described thus: GRP78 mRNA by real-time RT-PCR. Type of assay: cell-based, human. As to conditions: Caco-2 cells, 24 h, peptides 20 µg/ml, THP 1 µM, normalized to GAPDH.
Assay [2] concerns CHOP. The assay can be described thus: CHOP mRNA by real-time RT-PCR. The settings on record: Caco-2 cells, 24 h, peptides 20 µg/ml, THP 1 µM, normalized to GAPDH. Type of assay: cell-based, human. In general terms: Real-time PCR tracks product formation cycle by cycle.
Assay [3] concerns intracellular tTG. The assay can be described thus: Microplate assay of tTG transamidating activity on cell lysates. Type of assay: cell-based. The settings on record: Caco-2 cells. As to the method: (§1) In situ tTG activity was visualized by using the tTG substrate pentylamine-biotin (Euroclone, Milan, Italy) as reported elsewhere. Caco-2 cells were treated for 30 min with 10 µM ionomycin (Sigma-Aldrich, Milan, Italy), or with different amounts of gliadin peptides, or with 1 µM THP, in the presence of 0.5 mM pentylamine-biotin, before being processed for microscopy observation. To visualize biotin-labeled p31–43 and p57–68 in the cells, peptides needed to be used at a concentration of 0.2 mM. […] Pentylamine-biotin was also used to quantify the tTG transamidating activity by a microplate assay. Briefly, after 30 min of treatment with 20 µg/ml gliadin peptides, or with 1 µM THP, cells were lysed and proteins (25 µg) were coated into the wells of a 96-well plate. The wells were blocked with 10% bovine serum albumin then incubated with 1∶5000 peroxidase-conjugated streptavidin (Euroclone) in 5% bovine serum albumin. To reveal peroxidase activity, 3,3′,5,5′-tetramethylbenzidine (Sigma-Aldrich, Milan, Italy) was added to each well and, after stopping the reaction with H2SO4, absorbances were read at 450 nm.

Assay [4] has as its system CHOP. The assay can be described thus: CHOP protein level by western blot. Type of assay: cell-based. As to conditions: Caco-2 cells, 24 h, peptides 20 µg/ml, THP 1 µM, normalized to tubulin. As to the method:
(§2) Cells were washed with phosphate-buffered saline solution and mechanically harvested in lysis buffer, consisting of 20 mM Tris-HCl, pH 7.5, 150 mM NaCl, 1 mM EDTA, 1 mM dithiotreitol, 0.1% sodium dodecyl sulphate, 1% triton X-100, 1 mM ortovanadate, and inhibitors cocktail (Sigma-Aldrich). After 30 min of incubation on ice, cell extracts were centrifuged at 12,000 g for 30 min at 4°C, to remove cell debris, then 75 µg of total proteins were separated by 10% sodium dodecyl sulphate-polyacrylamide gel electrophoresis and transferred to a membrane. To detect tTG, the blot was treated as described elsewhere. To detect GRP78 and CHOP, the blots were treated with 5% skim milk in phosphate-buffered saline overnight at 4°C, then incubated for 2 h with an anti-GRP78 rabbit polyclonal antibody (H-129) (1∶500; Santa Cruz, CA, USA), or with an anti-CHOP mouse monoclonal antibody (1∶1,500; Santa Cruz), respectively, in phosphate-buffered saline containing 0.1% tween-20. After washing, the blots were incubated for 1 h at room temperature with an anti-rabbit-peroxidase secondary antibody (1∶10,000; Bio-Rad Laboratories), or with an anti-mouse-peroxidase secondary antibody (1∶10,000; Bio-Rad Laboratories), respectively.
On the technique in general: In western blotting, separated proteins are transferred to a membrane and probed.

Assay [5] has as its system intracellular tTG. Nature of the assay: In situ tTG transamidating activity, pentylamine-biotin incorporation, microscopy. Type of assay: cell-based. The settings on record: Caco-2 cells; for In situ tTG crosslinking activity (fluorescence of pentylamine-biotin incorporation): 30 min, complete medium, peptides 20 µg/ml, ionomycin 10 µM, THP 1 µM, 0.5 mM pentylamine-biotin. The method, then: as §1

The test system of assay [6] is GRP78. Nature of the assay: GRP78 protein level by western blot. As to conditions: Caco-2 cells, 24 h, THP 1 µM, normalized to tubulin. Type of assay: cell-based. The method, then:
as §2

Another assay deals with Caco-2 cells. Type of assay: cell-based. The method, then:
Intracellular Ca^2+ concentration ([Ca^2+]i) was measured in Caco-2 cells by single cell computer-assisted videoimaging using the Ca^2+ indicator Fura-2 acetoxymethyl ester, as previously described, [22]. Gliadin peptides were loaded at concentrations between 0.2 and 20 µg/ml for 30 min at 37°C in normal Krebs solution containing the following (in mM): 5.5 KCl, 160 NaCl, 1.2 MgCl2, 1.5 CaCl2, 10 glucose, and 10 Hepes-NaOH, pH 7.4. To selectively deplete intracellular Ca^2+ stores, experiments were performed in the presence of thapsigargin (THP) (1 µM), an irreversible and selective inhibitor of the sarco(endo)plasmic reticulum Ca^2+ ATPase, and in the presence of the mitochondrial uncoupler carbonylcyanide-p-trifluoromethoxyphenylhydrazone (FCCP) (300 nm).

The values below come from paper PMC3458012, “Gliadin Peptides Induce Tissue Transglutaminase Activation and ER-Stress through Ca^2+ Mobilization in Caco-2 Cells” (PLoS ONE, 2012).

Ends that are not written are not given here.

Consider `C/C=C(/C)C(=O)O[C@H]1C(C)=C2[C@H]([C@@H]1OC(=O)CCCCCCC)[C@@](C)(OC(C)=O)C[C@H](OC(=O)CCC)[C@@]1(O)[C@H]2OC(=O)[C@@]1(C)O` [THP, thapsigargin], for which the “Increase of GRP78 mRNA expression with respect to untreated cells” value in the assay on GRP78 [1] is reported as “about 30 fold”. Moreover, the “Increase of CHOP mRNA expression” value in the assay with CHOP [2] was “about 14 fold”. Moreover, the “Increase of tTG activity versus cells exposed to pentylamine-biotin alone” value in the assay on intracellular tTG [3] (30 min, peptides 20 µg/ml or THP 1 µM, 25 µg lysate, absorbance 450 nm, at least 3 experiments in triplicate) was “similar”. For the same compound, in the assay with CHOP [4], the “Increase of CHOP protein expression” value was “three-fold”. Also, the “In situ tTG crosslinking activity (fluorescence of pentylamine-biotin incorporation)” value (“In situ tTG crosslinking activity” below) in the assay on intracellular tTG [5] is given as “sufficient to activate intracellular tTG”. Moreover, the “In situ tTG activation in Ca2+-free medium” value in the assay with intracellular tTG [5] (phosphate-buffered saline without Ca2+ and Mg2+) was “sufficient to activate intracellular tTG”. In addition, the “Increase of GRP78 protein expression” value in the assay with GRP78 [6] was “about five-fold”.
Consider `NCCSSCCN` [cystamin], for which, in the assay with intracellular tTG [3] (microplate assay, three experiments in triplicate), the “Effect of cystamin pretreatment on tTG activity induced by ionomycin or p31–43” value was “significant reduction of tTG activity”. In the assay on intracellular tTG [5] (cystamin 200 µM added 5 min before treatment), the “Inhibition of in situ tTG activation induced by ionomycin and p31–43” value is reported as “inhibited the tTG activation”.
LGQQQPFPPQQPY [p31–43]: the “EC50 of [Ca2+]i increase” value in the assay with Caco-2 cells worked out at 0.2 µg/mL.
On to LPQFEEIRNLALQTLPAM [p229–246], for which, in the assay on intracellular tTG [5], the “In situ tTG crosslinking activity” value was “fluorescence intensity did not increase”.
Still for that read-out and setting: in the case of “PLIRPLLARPAK [pHTP, irrelevant control peptide, 537–548 region of the human thyroid peroxidase]” it was “fluorescence intensity did not increase”.
Take QLQPFPQPQLPY [p57–68]: the “EC50 of [Ca2+]i increase” value in the assay with Caco-2 cells is 0.9 µg/mL.
As for “QQPQDAVQPF [pCTR, irrelevant control peptide … from durum wheat]”, the “[Ca2+]i increase with respect to the basal value” with Caco-2 cells (Caco-2 cells, 20 µg/ml, normal Krebs solution) is “did not affect”. The “In situ tTG crosslinking activity” value in the assay on intracellular tTG [5] is on record as “fluorescence intensity did not increase”.
